Measured values as given in patent US20160052918A1, “SMALL COMPOUNDS TARGETING TACC3” (JAPANESE FOUNDATION FOR CANCER RESEARCH, priority 2012, published 2016).
In brackets after ≈: the same amount, converted by molar mass.

Assays:
[1] = target: T1, TACC3-DsRed fusion protein (Homo sapiens, UniProt Q9Y6A5); test: Chemical array screening for compounds binding to TACC3-DsRed fusion protein; settings: compound immobilized on chemical array, cell lysate
T1 construct: expressed in transfected cells; host or cells: HEK293T
Experimental: The present inventors screened for compounds targeting at TACC3 using a chemical array (FIG. 1).
According to the protocol of Miyazaki et al. (Non Patent Literature 13), a cell lysate containing a TACC3-DsRed fusion protein was contacted with the chemical array to screen for a compound binding to the TACC3-DsRed fusion protein (FIG. 1, upper diagram).
The cell lysate containing a TACC3-DsRed fusion protein is prepared as follows.
Human TACC3 cDNA was cloned into pDsRed-Express-N1 (Registered Trade Mark) (manufactured by Clontech Laboratories, Inc.), which was then transferred to HEK293T cells. Forty eight hours after transfection, the cells were collected. The obtained cells were sonicated in PBS and centrifuged for removal of insoluble substances to obtain a cell lysate. The cell lysate was confirmed the presence of the TACC3-DsRed fusion protein using anti-TACC3 and anti-DsRed antibodies.
The cell lysate containing a TACC3-DsRed fusion protein was contacted with the chemical array. After washing, the TACC3-DsRed fusion protein bound with a compound immobilized on the chemical array was detected. The detection of the TACC3-DsRed fusion protein with a compound was carried out by the excitation of a chemical array slide with a wavelength of 532 nm and the detection of fluorescence at 575 nm

cultured cells = test: Visual screening (microscopic observation) for abnormal cell division in cultured cells; format: cell-based; settings: added into culture medium
Text: As a result of screening 6800 compounds, 70 compounds were bound with the TACC3-DsRed fusion protein. These 70 compounds recognized to bind to the TACC3-DsRed fusion protein were each added into a culture medium of cultured cells. Compounds inducing abnormal cell division were selected by microscopic observation. As a result, 4 compounds were screened for as compounds inhibiting cell division (FIG. 1, lower diagram, visual screening).

[2] = system: SKOV-3 cells expressing EGFP-α-tubulin; test: Mitotic arrest of synchronized EGFP-α-tubulin-expressing SKOV-3 cells, time-lapse single-cell analysis; format: cell-based; settings: for EC50: Homo sapiens, SK-OV-3, 72 h, mitotic arrest, EC50=50% arrest rate, double thymidine block, time-lapse 3 days, at least 50 cells, read-out: SKOV3 EC50; for inhibitory effects on cell growth: summary of Table 2 (SKOV-3 mitotic arrest and lymphoma cell death); for Remarks: start of mitosis: At 66.7 μg/ml; for Remarks: cytotoxic: Table 2 remark
Experimental: The EGFP-α-tubulin-expressing cells used in the assay will be described. In order to observe mitosis under a fluorescence microscope, cells expressing EGFP-α-tubulin (fusion protein of a fluorescent protein, EGFP, and α-tubulin) were prepared. A system observable under a fluorescence microscope without cell fixation was prepared.
Ovary cancer cells SKOV-3 were cultured in an RPMI1640 medium supplemented with 5% fetal bovine serum. Stable cells expressing EGFP-α-tubulin were transduced by lentiviral transduction using pLenti4/V5-DEST vectors (Registered Trade Mark) (manufactured by Invitrogen Corp.) and selected by the FACS sorting of infected cells using Zeocin (Registered Trade Mark) and subsequent FACSAria (Registered Trade Mark) (Becton, Dickinson and Company).
The compounds NPD2448, NPD2568, NPD3574, NPD4089, and C7—O-propylated NPD3574 were each added at varying concentrations to the culture medium of SKOV-3 cells expressing EGFP-α-tubulin and analyzed for their effect on cell division.
The SKOV-3 cells expressing EGFP-α-tubulin were synchronized by thymidine block to analyze the effect on cell division of each compound. As shown in the upper part of FIG. 2, each compound was added to the culture medium after the 1st thymidine block. After synchronization by the second thymidine block, images were taken every 2 minutes for 3 days using Leica AF6000 and ×20/0.5 Plan Fluotar objective lens in a phenol red-free RPMI1640 medium supplemented with 5% fetal bovine serum. These time-lapse images were analyzed using ImageJ 1.42a software, and the time of mitotic arrest was determined by visual judgment. The duration of mitosis was manually determined from the image sequences of at least 50 cells.
The mitotic arrest (EC50=50% arrest rate) was tested by the microscopic analysis of individual single cells.
EGFP-α-tubulin-expressing SKOV-3 cells synchronized by double thymidine block in the same way as in Example 2 were treated with each synthesized compound and subjected to time-lapse photography for 3 days. At least 50 cells were observed. The time of arrest of each cell was calculated, and EC50 was determined therefrom.
EGFP-α-tubulin-expressing SKOV-3 cells supplemented with each of SPL-A and SPL-B at varying concentrations were synchronized by double thymidine block in the same way as in Example 2. Analysis based on single cells was conducted by time-lapse photography. The duration of mitosis was measured from the image sequences of at least 50 cells.

mouse lymphoma cell line = test: Cell death of lymphoma (survival rate, WST-1); format: cell-based; settings: 72 h, IC50=50% survival rate, three days
Experimental: The synthesized compounds were analyzed for their activity against cell death induction using a mouse lymphoma cell line (see Non Patent Literature 12), which was a cell line derived from thymic lymphoma developed in p53KO mouse.
The number of the lymphoma cells was adjusted to 1.2×10^5 cells/ml. The cells were inoculated at a concentration of 50 μl/well to a 96-well culture dish. A medium containing each RT compound as the novel compound of the present invention at twice the concentration of 50 μl was further added thereto (final concentration: 0.021 to 13.3 μg/ml). Three days after cultivation, the survival rate was calculated using WST-1 reagent (manufactured by F. Hoffmann-La Roche, Ltd.).

| SMILES | binding to the TACC3-DsRed fusion protein [1] | abnormal cell division (cultured cells) | EC50 [2] [µg/mL] | inhibitory effects on cell growth [2] | IC50 (mouse lymphoma cell line) [µg/mL] | Remarks: start of mitosis [2] | Remarks: cytotoxic [2] |
| --- | --- | --- | --- | --- | --- | --- | --- |
| CCCN(CCC)Cc1c(O)ccc2c(-c3cc4ccccc4oc3=O)cc(=O)oc12 [NPD2448] | bound to the TACC3-DsRed fusion protein | induced abnormal cell division | – | – | – | – | – |
| O=c1cc(-c2cc3cc(Cl)ccc3oc2=O)c2ccc(O)c(CN3CCCCCC3)c2o1 [NPD2568] | bound to the TACC3-DsRed fusion protein | induced abnormal cell division | – | – | – | – | – |
| COCCN(CCOC)Cc1c(O)ccc2c(-c3cc4ccccc4oc3=O)cc(=O)oc12 [NPD3574] | bound to the TACC3-DsRed fusion protein | induced abnormal cell division | 0.85 (≈ 1.88 µM) | remarkable inhibitory effects on cell growth | 1.26 (≈ 2.79 µM) | – | – |
| CCCCN(C)Cc1c(O)ccc2c(-c3cc4cc(Br)ccc4oc3=O)cc(=O)oc12 [NPD4089] | bound to the TACC3-DsRed fusion protein | induced abnormal cell division | – | – | – | – | – |
| COCCN(CCOC)Cc1c(O)ccc2c(C)cc(=O)oc12 [RT-001] | – | – | > 66.7 | – | – | – | – |
| CC(=O)OCc1c(OC(C)=O)ccc2c(-c3cc4ccccc4oc3=O)cc(=O)oc12 [RT-002] | – | – | > 13.3 | remarkable inhibitory effects on cell growth | 8.3 (≈ 19.7 µM) | μg/ml, mitosis did not | Cytotoxic. At 66.7 |
| CCN(CC)Cc1c(O)ccc2c(-c3cc4ccccc4oc3=O)cc(=O)oc12 [RT-003] | – | – | 0.85 (≈ 2.17 µM) | remarkable inhibitory effects on cell growth | 5.08 (≈ 13 µM) | – | – |
| CN(CCO)Cc1c(O)ccc2c(-c3cc4ccccc4oc3=O)cc(=O)oc12 [RT-004] | – | – | 8.49 (≈ 21.6 µM) | remarkable inhibitory effects on cell growth | > 13.3 | – | – |
| CN(C)CCNCc1c(O)ccc2c(-c3cc4ccccc4oc3=O)cc(=O)oc12 [RT-005] | – | – | > 13.3 | remarkable inhibitory effects on cell growth | 5.37 (≈ 13.2 µM) | μg/ml, mitosis did not | Cytotoxic. At 66.7 |
| CCN(CCN(C)C)Cc1c(O)ccc2c(-c3cc4ccccc4oc3=O)cc(=O)oc12 [RT-006] | – | – | 1.15 (≈ 2.65 µM) | remarkable inhibitory effects on cell growth | 3.3 (≈ 7.6 µM) | – | – |
| O=c1cc(-c2cc3ccccc3oc2=O)c2ccc(O)c(CN3CCCC3)c2o1 [RT-008] | – | – | 2.67 (≈ 6.86 µM) | remarkable inhibitory effects on cell growth | 9.77 (≈ 25.1 µM) | – | – |
| O=c1cc(-c2cc3ccccc3oc2=O)c2ccc(O)c(CN3CCCCC3)c2o1 [RT-009] | – | – | 2.68 (≈ 6.64 µM) | remarkable inhibitory effects on cell growth | 10.1 (≈ 25.1 µM) | – | – |
| CC1CCN(Cc2c(O)ccc3c(-c4cc5ccccc5oc4=O)cc(=O)oc23)CC1 [RT-010] | – | – | 0.94 (≈ 2.25 µM) | remarkable inhibitory effects on cell growth | 1.64 (≈ 3.93 µM) | – | – |
| O=c1cc(-c2cc3ccccc3oc2=O)c2ccc(O)c(CN3CCOCC3)c2o1 [RT-012] | – | – | 1.39 (≈ 3.43 µM) | remarkable inhibitory effects on cell growth | 2.05 (≈ 5.06 µM) | – | – |
